According to US20020082273A1, “Agents for use in the treatment of alzheimer's disease” (priority 1998, published 2002):
Counter-ions that a name gives are not always drawn.

Tests used:
Assay type in all cases: biochemical
[1] = target: Aβ1-42 (Homo sapiens, UniProt P05067); assay: Effect of metal chelators on H2O2 production from Aβ1-42; conditions: 1 μM Cu^2+; chelator 200 μM
[2] = target: T1, Aβ1-40 or Aβ1-42 SDS-resistant polymers (Homo sapiens, UniProt P05067); assay: Dissolution of in vitro Cu^2+-induced SDS-resistant Aβ polymers
T1 construct: purchased W. Keck Laboratory, Yale; host or cells: chemical synthesis
T1 sequence (P05067 672-713, change not shown): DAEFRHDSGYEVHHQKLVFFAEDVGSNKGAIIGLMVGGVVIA

[3] = Metal reduction assay, Fe^3+ to Fe^2+; conditions: 10 μM Fe^3+, PBS pH 7.4, 1 hr 37° C.
Experimental: (§1) The metal reduction assay was performed using a 96-well microtiter plate (Costar) based upon a modification of established protocols (Landers, J. W., et al., Amer. Clin. Path. 29:590 (1958); Landers, J. W., et al., Clinica Chimica Acta 3:329 (1958)). Polypeptides (10 μM) or Vitamin C (100 μM), metal ions (10 μM, Fe(NO3)3 or Cu(NO3)2), and reduced metal ion indicators, bathophenanthrolinedisulfonic acid (BP, for Fe^2+, Sigma, 200 μM) or bathocuproinedisulfonic acid (BC, for Cu^+, Sigma, 200 μM), were coincubated in phosphate buffered saline (PBS), pH 7.4, for 1 hr at 37° C. The metal ion solutions were prepared by direct dilution in the buffer from their aqueous stocks purchased from National Institute of Standards and Technology (NIST). Absorbances were then measured at 536 mn (Fe^2+-BP complex) and 483 nm (Cu^+-BC complex), respectively, using a 96-well plate reader (SPECTRAmax 250, Molecular Devices, CA). In control samples, both metal ion and indicator were present to determine the background buffer signal. As a further control, both metal ion and peptide were present in the absence of indicator to estimate the contribution of light scattering due to turbidity to the absorbance reading at these wavelengths. The net absorbances (ΔA) at 536 nm or 483 nm were obtained by deducting the absorbances from these controls from the absorbances generated by the peptide and metal in the presence of the respective indicator.
The concentrations of reduced metal ions (Fe^2+ or Cu^+) were quantified based on the formula: Fe^2+ or Cu^+ (˜M)=A*10^6/(L*M), where L is the measured equivalent vertical pathlength for a well of 300 μL volume as described in the instrument's specifications manual (0.856 cm for Fe^2+; 1.049 cm for Cu^+); M is the known molecular absorbance (M^−1 cm^−1) which is 7124 (for Fe^2+-BP complex) or 2762 (for Cu^+-BC complex).

[4] = Metal reduction assay, Cu^2+ to Cu^+
Experimental: Aβ (10 μM in PBS, pH 7.4 or 6.8, as shown) was incubated for 30 minutes (37° C.) in the presence of Cu^2+10 μM ±Zn^2+ 10 μM). […] levels (n=3, ±SD) were assayed against a standard curve.
as §1, with “Polypeptides” for “The metal reduction assay was performed using a 96-well microtiter plate (Costar) based upon a modification of established protocols (Landers, J. W., et al., Amer. Clin. Path. 29:590 (1958); Landers, J. W., et al., Clinica Chimica Acta 3:329 (1958)). Polypeptides”, “Absorbances were then measured at 536 mn (Fe^2+-BP complex) and 483 nm (Cu^+-BC complex), respectively, using a 96-well plate reader (SPECTRAmax 250, Molecular Devices, CA).” left out

Chain of Aβ1-42 (P05067 672-713 limits assumed): as the sequence (P05067 672-713, change not shown) above

Row | Molecule | disruption of SDS-resistant polymers ([2]; 4.5 M) | disruption of SDS-resistant polymers ([2]; 9M) | further results
1 | O=S(=O)(O)c1ccc(-c2ccnc3c2ccc2c(-c4ccc(S(=O)(=O)O)cc4)ccnc23)cc1 [BP, bathophenanthrolinedisulfonic acid] | – | – | effect on H2O2 formation by Aβ1-42 [1]: inhibited H2O2 formation
2 | NC(N)=O [Urea, urea] | did not disrupt | only slightly | –
3 | N=C(N)N [guanidine HCl] | did not disrupt | only slightly | –
4 | insulin: histidine-containing peptide that can bind copper and zinc | – | – | reduction of available Fe^3+ [3]: did not significantly facilitate the reduction of Fe^3+; reduction of available Cu^2+ ([4]; 10 μM Cu^2+, PBS pH 7.4, 1 hr 37° C.): 10%; Cu^2+ reduction ([4]; 10 μM, PBS, 30 minutes 37° C., Cu^2+ 10 μM): no Cu^2+ reduction
